Paper PMC7586386, “Discovery of Covalent Inhibitors Targeting the Transcriptional Enhanced Associate Domain Central Pocket” (Journal of Medicinal Chemistry, 2020)

Legend:
hTEAD4 (nonacylated) [1] = target: T1, hTEAD4 (nonacylated) (Homo sapiens, UniProt Q15561); experiment: Time-dependent inhibition, thiol conjugation assay; format: binding
T1 construct: N-terminal His6-tagged hTEAD4^217–434 was subcloned; made in house; host or cells: Escherichia coli BL21-CodonPlus (DE3)-RIPL
Procedure: (§1) To serially diluted solutions of the tested compounds in 5 μL of assay buffer [HEPES (25 mM) and NaCl (150 mM) pH 6.5], freshly prepared 5 μL of 0.45 μM protein solution was added and incubated at room temperature for 10 min, followed by addition of 5 μL of 0.45 μM CPM solution, giving a 15 μL final assay volume, 150 nM protein, and 150 nM CPM. The assay plate was shaken at room temperature for 1 h before measuring the fluorescence (Ex/Em: 380/470 nm). Compound 19 was used as an internal standard to determine 100% inhibition.
(§2) TDI of hTEAD4 (nonacylated) by compound 19 was monitored in FP (central pocket binding) and thiol conjugation assays at 5–7 different concentrations (0.15–40 μM) following 1, 2, 4, and 24 h incubation at 4 °C (mean ± SD; n = 2). By fitting the percent of inhibition versus preincubation time at different concentrations, kobs was calculated. Next, kobs was plotted against concentration and was further fitted to a nonlinear regression model to determine the kinetic parameters of covalent inhibition of hTEAD4, where plateau is showing kinact (min^–1) and t1/2 is Ki (μM).

hTEAD4 (nonacylated) [2] = target: T1, hTEAD4 (nonacylated); experiment: Time-dependent inhibition, FP (central pocket binding) assay
Procedure: To serially diluted solution of the tested compounds in 5 μL assay buffer [HEPES (25 mM) and NaCl (150 mM), pH 6.5 buffer], freshly prepared 5 μL of 0.15 μM protein solution was added and incubated at room temperature for 10 min followed by 5 μL of 30 nM FITC-palmitate solution, giving 15 μL final assay volume, 50 nM protein, and 10 nM tracer. The assay plate was shaken at room temperature for 1 h before measuring the FP (Ex/Em: 485/535 nm).
as §2

hTEAD1–4 = experiment: Thiol conjugation assay, TEAD homologues (range over all four); format: binding, human
Procedure: as §1

[3] = Assay media stability (HPLC); format: physicochemical
Procedure: The compounds were incubated in MES (25 mM), pH 6.5 buffer or HEPES (25 mM) and NaCl (150 mM) pH 6.5 buffer for an hour at room temperature before injecting into a reverse-phase HPLC system (ThermoScientific_Ultimate 3000) equipped with a C18 column (2/50 Nucleodur C18 gravity 1.8 μm von Macherey-Nagel).

hTEAD4 (acylated) = target: T2, hTEAD4 (acylated) (Homo sapiens, UniProt Q15561); experiment: Whole-protein ESI–MS of covalent modification; format: binding; details: hTEAD4 not treated with hydroxylamine
T2 construct: N-terminal His6-tagged hTEAD4^217–434 was subcloned; made in house; host or cells: Escherichia coli BL21-CodonPlus (DE3)-RIPL
Procedure: (§3) The protein solution (1 μL 5 μM) was injected to UPLC-MS (ThermoScientific_UltiMate 3000 LC coupled to a Velos Pro MS) through a desalting column (MassPREP Online desalting, 2.1 × 10 mm). For reactions, 1 μM of the protein was incubated at room temperature for 1 h with 8 equiv of the compound in HEPES (25 mM) and NaCl (150 mM) pH 6.5 buffer. Then, the mixture was centrifuged before injecting 5 μL. The deconvolution of m/z values was performed using Promass Xcalibur software.

hTEAD4 (nonacylated) [4] = target: T1, hTEAD4 (nonacylated); experiment: Whole-protein ESI–MS of covalent modification; format: binding; details: 8 equiv of compound, 1 h, rt
Procedure: as §3

Ala mutant of mTEAD4 = target: T3, Ala mutant of mTEAD4 (Mus musculus, UniProt Q62296, C360A); experiment: Thiol conjugation assay with cysteine mutant; format: binding; details: 10 μM compound
T3 construct: N-terminal His6- and MBP-tagged mTEAD4^209–427 with Cys360Ala mutation; made in house; host or cells: E. coli BL21-CodonPlus (DE3)-RIPL
Procedure: as §1

Ser mutant of mTEAD4 = target: T4, Ser mutant of mTEAD4 (Mus musculus, UniProt Q62296, C360S); experiment: Thiol conjugation assay with cysteine mutant; format: binding; details: 10 μM compound
T4 construct: His (N); made in house
Procedure: as §1

mTEAD4 (nonacylated) = target: T5, mTEAD4 (nonacylated) (Mus musculus, UniProt Q62296); experiment: 1H–15N HSQC NMR; format: binding; details: 0.5 mM compound, versus DMSO
T5 construct: made in house
Procedure: The ^13C/^15N-labeled mTEAD4 was prepared following a protocol established earlier,[45] and the protein was deacylated as described above for hTEAD4. ^1H–^15N HSQC spectra in the presence of DMSO or the test compound (0.5 mM) were collected at 37 °C on a Bruker 600 MHz magnet equipped with a cryoprobe in 20 mM HEPES, pH 7.3 buffer containing 150 mM NaCl and 1 mM DTT. The spectra were processed and overlaid.

T1 sequence (Q15561 217-434): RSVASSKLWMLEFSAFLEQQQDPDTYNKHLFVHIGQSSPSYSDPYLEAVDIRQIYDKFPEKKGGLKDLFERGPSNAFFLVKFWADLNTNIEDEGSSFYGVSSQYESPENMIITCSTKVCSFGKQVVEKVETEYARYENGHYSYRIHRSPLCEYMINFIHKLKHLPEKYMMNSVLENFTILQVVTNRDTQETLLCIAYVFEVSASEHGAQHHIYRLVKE
T3 sequence (Q62296 209-427 C360A): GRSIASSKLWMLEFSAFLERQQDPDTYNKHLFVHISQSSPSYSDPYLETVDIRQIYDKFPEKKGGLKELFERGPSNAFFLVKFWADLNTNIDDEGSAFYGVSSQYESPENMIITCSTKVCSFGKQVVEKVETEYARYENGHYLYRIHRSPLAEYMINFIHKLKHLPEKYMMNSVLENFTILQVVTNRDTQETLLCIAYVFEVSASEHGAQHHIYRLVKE
T2 sequence (Q15561 217-434): as the sequence (Q15561 217-434) above
T5 sequence (Q62296 210-427 limits assumed): as the sequence (Q15561 217-434) above, with V3I, Q19R, G35S, A48T, D67E, E91D, S96A, S142L counted along it
T4 sequence (Q62296 whole entry C360S): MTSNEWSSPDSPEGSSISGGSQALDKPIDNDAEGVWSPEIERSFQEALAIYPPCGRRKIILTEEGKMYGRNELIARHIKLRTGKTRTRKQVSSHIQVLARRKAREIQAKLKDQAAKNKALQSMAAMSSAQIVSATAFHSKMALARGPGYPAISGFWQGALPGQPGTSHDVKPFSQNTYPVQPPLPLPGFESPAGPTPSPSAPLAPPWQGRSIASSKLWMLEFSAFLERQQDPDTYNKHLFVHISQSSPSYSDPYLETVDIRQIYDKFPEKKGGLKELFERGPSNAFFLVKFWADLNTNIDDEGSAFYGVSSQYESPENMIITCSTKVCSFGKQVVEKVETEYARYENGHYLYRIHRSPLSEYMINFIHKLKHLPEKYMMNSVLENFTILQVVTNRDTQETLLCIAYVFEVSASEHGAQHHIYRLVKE

- kinact (hTEAD4 (nonacylated) [1]; supplementary CSV): 0.000333 s⁻¹
- kinact/KI (hTEAD4 (nonacylated) [1]; thiol conjugation assay): 138 M⁻¹ s⁻¹
- kinact/KI (hTEAD4 (nonacylated) [2]; FP assay): 66.7 M⁻¹ s⁻¹
- kinact (hTEAD4 (nonacylated) [2]; FP, read-out: kinact (converted)): 0.0015 s⁻¹
- kinact (hTEAD4 (nonacylated) [2]; supplementary CSV, read-out: Kinact Fluorescence Polarization (converted)): 0.00015 s⁻¹
- IC50 (hTEAD1–4): 2.6 to 6.9 µM
- stability in assay medium ([3]; MES buffer, pH 6.5, 1 h, rt): stable
- inhibition of the increase in fluorescence signal (Ala mutant of mTEAD4): cannot inhibit
- inhibition of the increase in fluorescence signal (Ser mutant of mTEAD4): cannot inhibit
Compound: O=c1cc(CO)oc(C(Nc2ccccc2)c2ccccc2)c1O (stereo not shown) [Compound 19, 3-Hydroxy-6-(hydroxymethyl)-2-(phenyl(phenylamino)methyl)-4H-pyran-4-one]
- stability in assay medium ([3]; HEPES buffer (pH 6.5), 1 h): appearance of two small peaks was detected
- adduct formation with acylated protein (whole-protein ESI–MS) (hTEAD4 (acylated)): did not result in the formation of an acylated hTEAD4-19 adduct
- modification of the protein (whole-protein ESI–MS) (hTEAD4 (nonacylated) [4]): modification of the protein (+230 Da) was observed
- effect on 1H–15N HSQC spectrum (mTEAD4 (nonacylated)): induced line broadening of several residues
